Results on four molecules are retold here after patent US20250064758A1 (priority 2023, published 2025).

Format in all cases: cell-based
For test [1], the system named is SARS-COV-2 Omicron variant BA.5.
Test [2] concerns SARS-COV-2 Delta variant B.1.617.2.
Test [3] concerns SARS-COV-2 Omicron variant BA.4.

Take `CC(C)NCC(O)COc1ccc(CC(N)=O)cc1` (stereo not drawn) [atenolol]: the “SARS-CoV-2 replication fitness (viral gene copies in cell supernatant)” value in test [1] is reported as “didn't affect”. As for `CC(C)NCC(O)COc1cccc2ccccc12` (stereo not drawn) [Propranolol, 1-(isopropylamino)-3-(1-naphthyloxy)-2-propanol], the “reduction in viral load” value in test [2], in test [3] and in test [1] was 2-3 log10 in each case.

`CC(C)(C)NCC(O)COc1cccc2c1CC(O)C(O)C2` (stereo not drawn) [Nadolol]: the “SARS-CoV-2 replication fitness (viral gene copies in cell supernatant)” value in test [1] is reported as “didn't affect”. On the same count and under the same terms, in the case of `CC(C)NCC(O)c1ccc(O)c(O)c1` (stereo not drawn) [isoproterenol] it was “didn't affect”.
